Results published in ChEMBL document CHEMBL1147332, “Screening of marine invertebrates for the presence of ergosterol-sensitive antifungal compounds” (1993).
Active and inactive are the calls of the source. No cut-off for these calls is given here.

What was measured:
[1] = system: Candida albicans; assay: Antifungal activity against Candida albicans after 16 to 19 hrs by disk diffusion assay; type: functional, organism-based
[2] = system: Candida albicans; assay: Antifungal activity against Candida albicans at <= 1 ug after 16 to 19 hrs by disk diffusion assay; type: functional, organism-based
[3] = system: Candida albicans; assay: Antifungal activity against Candida albicans at 5 ug after 16 to 19 hrs by disk diffusion assay in presence of 120 ppm ergosterol; type: functional
[4] = system: Candida albicans; assay: Antifungal activity against Candida albicans after 16 to 19 hrs by disk diffusion assay in presence of 100 ppm ergosterol; type: functional, organism-based
[5] = system: Candida albicans; assay: Antifungal activity against Candida albicans at 2 ug after 16 to 19 hrs by disk diffusion assay in presence of 20 ppm ergosterol; type: functional
[6] = system: Candida albicans; assay: Antifungal activity against Candida albicans at 1 ug after 16 to 19 hrs by disk diffusion assay in presence of increasing concentration of ergosterol; type: functional, organism-based

SMILES | Activity [1] | Activity [2] | further results
CO[C@H]([C@H](C)/C=C/N(C)C=O)[C@@H](C)C(=O)CC[C@H](C)[C@H](C[C@@H]1OC(=O)C[C@@H](OC(N)=O)C[C@H](C)C[C@H](O)[C@H](C)[C@@H](OC)c2coc(n2)-c2coc(n2)-c2coc(n2)/C=C/C[C@H](OC)[C@H]1C)OC | inactive | Active | –
C/C1=C\[C@H](C)C[C@H](C)OC(=O)C[C@H](c2ccc(O)cc2)NC(=O)[C@@H](Cc2c(Br)[nH]c3ccccc23)N(C)C(=O)[C@H](C)NC(=O)[C@@H](C)C1 [JASPAMIDE] | inactive | Active | Activity [3]: 50%
Clc1ccc(COC(Cn2ccnc2)c2ccc(Cl)cc2Cl)c(Cl)c1 (stereo not drawn) | – | – | Activity [4]: Active
C[C@@H]1[C@H](O)[C@@H](C)/C=C/C=C/C=C/C=C/C=C/C=C/C=C/[C@H](O[C@@H]2O[C@H](C)[C@@H](O)[C@H](N)[C@@H]2O)C[C@@H]2O[C@](O)(C[C@@H](O)C[C@@H](O)[C@H](O)CC[C@@H](O)C[C@@H](O)CC(=O)O[C@H]1C)C[C@H](O)[C@H]2C(=O)O [AMPHOTERICIN B] | – | – | Activity [5]: 50%; Activity [6]: Active
